target: T1, human TRPM8 (Homo sapiens, UniProt Q7Z2W7); test: Menthol-induced Ca2+ influx in HEK293 cells stably expressing human TRPM8; format: cell-based; details: 30 microM menthol-induced Ca2+ influx, read-out: IC50 against TRPM8
T1 construct: expressed in transfected cells; host or cells: HEK293
Method: Measurement of the Menthol-Induced Ca^2+ Influx in HEK293 Cells Stably Expressing Human TRPM8
A cell-based Ca^2+ influx assay using HEK293 cells stably expressing human TRPM8 is used to identify the activity of compounds.
HEK293 cells stably expressing human TRPM8 are grown in T175 flasks at 37° C. in a 5% CO2 humidified incubator to about 80% confluence. Media composition consists of Dulbecco's Modified Eagle Medium (high glucose), 10% fetal calf serum (FCS), 100 units/mLPenicillin, 100 microg/mL Streptomycin and 600 microg/mL Geneticine. At 24 hours prior to assay, cells are seeded in poly-D-lysine coated 384-well plates (BD FALCON) at a density of 30,000 cells per well in culture medium and grown overnight in 5% CO2 at 37° C. On the assay day, growth media is removed and cells are loaded with 0.5 microM Fluo4-AM (Molecular Probes) and 0.005% Pluronic F-127 dissolved in assay buffer (Hank's balanced salt solution (HBSS), 19.4 mM HEPES pH7.4, 2.5 mM Probenecid) for 1 hour at room temperature. After washing with assay buffer, the cells are preincubated with various concentrations of the compounds for 5 min. The changes in intracellular calcium concentration by addition of 30 microM menthol are monitored by the cell imaging technology by Hamamatsu Photonics Functional Drug Screening System (FDSS).
The IC50 values for compounds of the present invention are determined from 11-point dose-response studies. Curves are generated using the average of duplicate wells for each data point. Finally, the IC50 values are calculated with the best-fit dose curve determined by XLfit (ID Business Solutions Ltd.).

T1 sequence (Q7Z2W7 whole entry): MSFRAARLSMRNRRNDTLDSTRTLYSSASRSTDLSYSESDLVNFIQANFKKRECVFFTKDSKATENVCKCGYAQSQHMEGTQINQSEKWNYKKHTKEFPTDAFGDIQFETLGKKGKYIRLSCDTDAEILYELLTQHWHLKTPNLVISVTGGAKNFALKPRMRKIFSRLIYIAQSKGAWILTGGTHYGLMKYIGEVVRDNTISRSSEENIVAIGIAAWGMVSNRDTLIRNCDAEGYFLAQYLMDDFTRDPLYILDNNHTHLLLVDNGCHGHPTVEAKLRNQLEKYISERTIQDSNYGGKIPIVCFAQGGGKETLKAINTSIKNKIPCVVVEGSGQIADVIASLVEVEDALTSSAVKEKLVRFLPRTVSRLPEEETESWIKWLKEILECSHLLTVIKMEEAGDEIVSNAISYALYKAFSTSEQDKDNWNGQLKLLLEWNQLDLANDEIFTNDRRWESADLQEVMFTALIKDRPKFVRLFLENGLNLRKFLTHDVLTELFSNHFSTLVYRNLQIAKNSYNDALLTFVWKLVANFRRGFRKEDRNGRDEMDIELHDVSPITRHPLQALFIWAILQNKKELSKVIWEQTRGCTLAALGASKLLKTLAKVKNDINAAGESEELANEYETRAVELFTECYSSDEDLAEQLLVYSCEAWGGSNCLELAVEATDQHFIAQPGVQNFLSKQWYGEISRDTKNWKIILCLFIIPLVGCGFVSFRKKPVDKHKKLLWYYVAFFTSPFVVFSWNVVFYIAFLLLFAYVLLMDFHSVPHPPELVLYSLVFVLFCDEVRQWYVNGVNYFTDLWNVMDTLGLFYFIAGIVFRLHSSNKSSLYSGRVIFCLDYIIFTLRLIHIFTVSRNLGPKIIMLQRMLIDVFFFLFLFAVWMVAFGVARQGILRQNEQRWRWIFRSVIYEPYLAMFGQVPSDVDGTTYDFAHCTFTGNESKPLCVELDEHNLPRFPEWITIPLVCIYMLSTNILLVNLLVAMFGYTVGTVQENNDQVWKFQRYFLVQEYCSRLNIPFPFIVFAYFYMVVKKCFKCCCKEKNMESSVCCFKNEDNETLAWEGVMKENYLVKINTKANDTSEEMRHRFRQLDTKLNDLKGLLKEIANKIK

Structure (SMILES) | IC50 [µM]
Cc1ccccc1-n1ncc(C(=O)CN2C(=O)NC3(CCC(F)(F)CC3)C2=O)c1C [Example 4-12] | < 0.5
O=C(CN1C(=O)NC2(CCC(F)(F)CC2)C1=O)c1ccc(-c2cccnc2)nc1 [Example 5-1] | < 0.1
O=C(CN1C(=O)NC2(CCCCC2)C1=O)c1ccc(-c2cccnc2)nc1 [Example 5-2] | < 0.1
COc1cc(C(=O)CN2C(=O)NC3(CCC(F)(F)CC3)C2=O)ccc1-c1cccnc1 [Example 5-3] | < 0.1
COc1cc(C(=O)CN2C(=O)NC3(CCC(F)(F)CC3)C2=O)ccc1-c1cccc(F)c1 [Example 5-4] | < 0.5
COc1cc(C(=O)CN2C(=O)NC3(CCC(F)(F)CC3)C2=O)ccc1-c1ccccc1C#N [Example 5-5] | < 0.1
O=C(CN1C(=O)NC2(CCC(F)(F)CC2)C1=O)c1ccc(-n2ncc3ccccc32)cc1 [Example 5-6] | < 0.1
O=C(CN1C(=O)NC2(CCC(F)(F)CC2)C1=O)c1ccc(-n2cnc3ccccc32)cc1 [Example 5-7] | < 0.01
Cc1nc2ccccc2n1-c1ccc(C(=O)CN2C(=O)NC3(CCC(F)(F)CC3)C2=O)cc1 [Example 5-8] | < 0.1
O=C(CN1C(=O)NC2(CCC(F)(F)CC2)C1=O)c1ccc(-n2cnc3cccnc32)cc1 [Example 5-9] | < 0.01
Cc1nc2cccnc2n1-c1ccc(C(=O)CN2C(=O)NC3(CCC(F)(F)CC3)C2=O)cc1 [Example 5-10] | < 0.01
O=C(CN1C(=O)NC2(CCC(F)(F)CC2)C1=O)c1ccc(-n2cnc3ncccc32)cc1 [Example 5-11] | < 0.1
O=C(CN1C(=O)NC2(CCC(F)(F)CC2)C1=O)c1ccc(-n2cnc3ccccc32)nc1 [Example 5-12] | < 0.1
Cc1nc2ccccc2n1-c1ccc(C(=O)CN2C(=O)NC3(CCCCCC3)C2=O)cc1 [Example 5-13] | < 0.1
Cc1nc2ccccc2n1-c1ccc(C(=O)CN2C(=O)NC3(CCC(F)(F)CC3)C2=O)cn1 [Example 5-14] | < 0.01
O=C(CN1C(=O)NC2(CCC(F)(F)CC2)C1=O)c1ccc(-n2c(CO)nc3ccccc32)cc1 [Example 5-15, 8,8-difluoro-3-(2-(4-(2-(hydroxymethyl)-1H-benzo[d]imidazol-1-yl)phenyl)-2-oxoethyl)-1,3-diazaspiro[4.5]decane-2,4-dione] | < 0.1
NCc1nc2ccccc2n1-c1ccc(C(=O)CN2C(=O)NC3(CCC(F)(F)CC3)C2=O)cc1 [Example 5-16, 3-(2-(4-(2-(aminomethyl)-1H-benzo[d]imidazol-1-yl)phenyl)-2-oxoethyl)-8,8-difluoro-1,3-diazaspiro[4.5]decane-2,4-dione] | < 0.5
O=C(CN1C(=O)NC2(CCC(F)(F)CC2)C1=O)c1ccc(Oc2ccccn2)cc1 [Example 5-17] | < 0.1
O=C(CN1C(=O)NC2(CCCCC2)C1=O)c1ccc(Oc2ccccn2)cc1 [Example 5-18] | < 0.1
O=C(CN1C(=O)NC2(CCCCC2)C1=O)c1ccc(Oc2ccccc2)cc1 [Example 5-19] | < 0.1
O=C(CN1C(=O)NC2(CCC(F)(F)CC2)C1=O)c1ccc(Oc2ncccn2)cc1 [Example 5-20] | < 0.1
O=C(CN1C(=O)NC2(CCC(F)(F)CC2)C1=O)c1ccc(Oc2ncccn2)cc1 [Example 5-21] | < 0.5
O=C(CN1C(=O)NC2(CCC(F)(F)CC2)C1=O)c1ccc(Oc2cccnn2)cc1 [Example 5-22] | < 0.1
O=C(CN1C(=O)NC2(CCC(F)(F)CC2)C1=O)c1ccc(Oc2ccccc2)nc1 [Example 5-23] | < 0.5
O=C(CN1C(=O)NC2(CCCCC2)C1=O)c1ccc(Oc2ccccc2)nc1 [Example 5-24] | < 0.5
Cc1ccncc1-c1ncc(C(=O)CN2C(=O)NC3(CCC(F)(F)CC3)C2=O)cc1Cl [Example 5-25] | < 0.1
Cc1ccnnc1-c1ccc(C(=O)CN2C(=O)NC3(CCCCCC3)C2=O)cc1 [Example 5-26] | < 0.1
Cc1ccc2nc(C)n(-c3ccc(C(=O)CN4C(=O)NC5(CCC(F)(F)CC5)C4=O)cc3)c2n1 [Example 5-27] | < 0.01
Cc1ccc2nc(C)n(-c3ccc(C(=O)CN4C(=O)NC5(CCCCCC5)C4=O)cc3)c2n1 [Example 5-30] | < 0.1

— patent US10093678B2, “Azaspiro derivatives as TRPM8 antagonists” (RaQualia Pharma Inc., priority 2014, dated 2018)
